The record followed here is patent US9146240B2, “Systems and methods for determining a C-peptide receptor, C-peptide receptor, and methods of using same” (Saint Louis University, priority 2012, dated 2015).

This assay concerns the target T1, GPR146 (Homo sapiens, UniProt Q96CH1).
T1 construct: endogenous in cells; host or cells: KATOIII (human stomach carcinoma)
Description: C-peptide-induced cFos expression in KATOIII cells after siRNA transfection. The following applies: 1 nmole C-peptide, 1 hour. The assay is classed as cell-based. On the procedure:
Once the hierarchical candidates were identified and ranked, KATOIII cells were then transfected with siRNA (Integrated DNA technologies) (111) directed against either GPR107 (control), GPR146 (most likely candidate not yet tested) or eGFP (green fluorescent protein—control) using Lipofectamine […] (Invitrogen). Five hours later, the media was changed to serum free control media (ATCC) and the serum was starved overnight. Twenty-four (24) hours after transfection with siRNA, cells were treated with 1 nmole C-peptide (Phoenix Pharmaceuticals) for 1 hour, then lysed and RNA were isolated using an RNeasy Kit (Qiagen). RNA was used as a template from the production of cDNA, and changes in cFos expression were determined using RT-PCR (BioRad 2x iQ SyberGreen Master Mix, using a BioRad CFX real time system). […] As this produced the desired negative response (113), GPR146 was the target GPCR (115). The receptiveness of GPR146 to C-peptide has since been verified by additional conventional tests

T1 sequence (Q96CH1 whole entry): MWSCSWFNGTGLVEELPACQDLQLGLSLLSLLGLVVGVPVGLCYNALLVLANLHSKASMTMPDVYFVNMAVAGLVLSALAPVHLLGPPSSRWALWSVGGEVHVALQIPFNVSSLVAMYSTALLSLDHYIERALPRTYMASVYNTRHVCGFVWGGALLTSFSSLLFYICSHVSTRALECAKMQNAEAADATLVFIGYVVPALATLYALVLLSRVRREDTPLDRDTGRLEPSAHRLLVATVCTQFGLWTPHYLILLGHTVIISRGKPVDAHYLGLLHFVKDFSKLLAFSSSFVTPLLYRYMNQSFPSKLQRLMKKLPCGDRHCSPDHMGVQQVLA

With C-peptide, the “changes in cFos expression” value by setting is: (KATOIII cells transfected with GPR107 siRNA (control)) “increase in cFos”; (KATOIII cells transfected with GPR146 siRNA (GPR146 compromised), FIG. 6) “failed to respond”; (KATOIII cells transfected with Vehicle (Lipofectamine 2000 alone, no siRNA)) “increase in cFos”; (KATOIII cells transfected with sGFPO siRNA (control)) “increase in cFos”.
